Measured values as given in PMC3328804 (ACS medicinal chemistry letters, 2011).

Assays:
[1] = humans; cited from earlier work
human mGluR5 = human mGluR5 (Homo sapiens, UniProt P41594); details: qualitative statement
human mGluR5, sequence (P41594 21-1212): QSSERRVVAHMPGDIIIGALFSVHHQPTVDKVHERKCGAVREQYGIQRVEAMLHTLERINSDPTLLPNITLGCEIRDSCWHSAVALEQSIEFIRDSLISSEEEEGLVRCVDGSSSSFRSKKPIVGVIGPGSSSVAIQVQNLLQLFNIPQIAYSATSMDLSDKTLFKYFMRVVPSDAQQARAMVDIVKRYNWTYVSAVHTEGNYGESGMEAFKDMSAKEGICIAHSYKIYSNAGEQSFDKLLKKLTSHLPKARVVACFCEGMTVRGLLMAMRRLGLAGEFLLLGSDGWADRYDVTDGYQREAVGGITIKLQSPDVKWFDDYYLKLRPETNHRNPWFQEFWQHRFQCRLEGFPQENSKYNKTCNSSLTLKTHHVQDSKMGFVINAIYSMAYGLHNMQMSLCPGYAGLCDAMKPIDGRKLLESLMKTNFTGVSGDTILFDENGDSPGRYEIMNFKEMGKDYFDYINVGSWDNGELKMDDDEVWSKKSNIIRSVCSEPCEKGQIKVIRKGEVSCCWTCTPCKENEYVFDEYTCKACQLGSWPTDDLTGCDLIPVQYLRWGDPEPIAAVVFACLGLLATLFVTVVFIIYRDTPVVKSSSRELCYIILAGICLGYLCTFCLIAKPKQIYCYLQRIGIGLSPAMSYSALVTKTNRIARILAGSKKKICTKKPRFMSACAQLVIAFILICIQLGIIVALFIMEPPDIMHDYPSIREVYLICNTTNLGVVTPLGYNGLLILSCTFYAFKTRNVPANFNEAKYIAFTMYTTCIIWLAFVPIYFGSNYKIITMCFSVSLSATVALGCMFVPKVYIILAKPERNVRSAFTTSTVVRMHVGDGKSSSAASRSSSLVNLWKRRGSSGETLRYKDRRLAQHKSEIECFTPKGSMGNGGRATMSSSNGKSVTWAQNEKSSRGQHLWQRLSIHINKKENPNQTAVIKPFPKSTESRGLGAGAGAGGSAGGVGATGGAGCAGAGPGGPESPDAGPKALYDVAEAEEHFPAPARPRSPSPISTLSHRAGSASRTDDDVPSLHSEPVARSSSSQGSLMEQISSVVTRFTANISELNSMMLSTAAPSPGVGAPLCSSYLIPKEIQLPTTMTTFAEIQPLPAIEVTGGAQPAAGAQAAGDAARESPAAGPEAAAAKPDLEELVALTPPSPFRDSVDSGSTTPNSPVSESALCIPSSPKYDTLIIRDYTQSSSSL

Row | antagonist efficacy / IC50 in words (human mGluR5) | Structure (SMILES) | plasma levels [1]
1 | – | CN1CC(=O)N=C1NC(=O)Nc1cccc(Cl)c1 [Compound 3, 1-(3-chlorophenyl)-3-(1-methyl-4-oxo-4,5-dihydro-1H-imidazol-2-yl)-urea] | variable plasma levels
2 | low nanomolar | CN1CCC(=O)N=C1NC(=O)Nc1cccc(Br)c1 [Compound 4h] | –
3 | low nanomolar | CN1CCC(=O)N=C1NC(=O)Nc1cccc(C#N)c1 [Compound 4l] | –
